Like-named read-outs stand apart in the source and are kept apart here. Blank lines part the entries; values can stand above or below the compound they belong to.
Legend:
PANC-1 = test: Docetaxel, 5-FU, SDX-102 alone or combined, MTT/MTS cytotoxicity (Example 4); format: cell-based; conditions: Homo sapiens; PANC-1, Pancreatic, single agent, MTT 72 hours
NCI-H2452 [1] = test: as above; format: cell-based; conditions: Homo sapiens; NCI-H2452, Mesothelioma, single agent, MTT 72 hours
NCI-H322M = test: as above; format: cell-based; conditions: Homo sapiens, NSCLC, single agent, MTT 72 hours
A549 [2] = test: as above; format: cell-based; conditions: Homo sapiens; A549, NSCLC, single agent, MTT 72 hours
PanC1 = test: Drug combinations with L-alanosine, MTT assay; format: cell-based; conditions: combination with L-alanosine, pancreatic, three days
Description: (§1) In each experiment, tumor cells from lung, pancreatic, or mesothelial tumor cell lines were plated in 96-well plates at 5,000 cells/well in 100 μL media. The media for all assays except the Alimta® studies was RPMI-1640 and 10% horse serum. For the Alimta® studies, the media used was RPMI 1640 with dialyzed fetal bovine serum. All media contained 100 Units/mL penicillin and 100 μg/mL streptomycin. The cells were allowed to adhere for 18 hours at 37° C./5.0% CO2. […] After drug addition, cells were incubated three days at 37° C., 5.0% CO2. Cell viability was assayed using a standard MTT assay, as follows: 10 μl of 12 mM 3-[4,5-dimethylthiazol-2-yl]-2,5-diphenyltetrazolium bromide (MTT) (Sigma) were added to each well. The cells were incubated at 37° C., 5% CO2 for 4 to 6 hours. 100 μl of 20% SDS, 0.015 M HCl were added to each well and the cells were incubated overnight. Cytotoxicity was measured by reading absorbance at 595 nm.
(§2) Data analysis was performed using GraphPad Prism version 3.0 (GraphPad Software, San Diego, Calif. USA).

NCI-H2452 [3] = test: Drug combinations with L-alanosine, MTT assay; format: cell-based; conditions: combination with L-alanosine, mesothelioma, three days
Description: as §1, §2

BX-PC3 [4] = test: Drug combinations with L-alanosine, MTT assay; format: cell-based; conditions: combination with L-alanosine, three days
Description: as §1, §2

BX-PC3 [5] = test: Docetaxel, 5-FU, SDX-102 alone or combined, MTT/MTS cytotoxicity (Example 4); format: cell-based; conditions: Homo sapiens, BXPC-3; BX-PC3, Pancreatic, single agent, MTT 72 hours
NCI-H292 [6] = test: as above; format: cell-based; conditions: Homo sapiens; NCI-H292, NSCLC, single agent, MTT 72 hours
NCI-H2322M = test: Drug combinations with L-alanosine, MTT assay; format: cell-based; conditions: combination with L-alanosine, ratio drug:alanosine 1:1000; NSCLC; three days
Description: as §1, §2

NCI-H292 [7] = test: Drug combinations with L-alanosine, MTT assay; format: cell-based; conditions: combination with L-alanosine, ratio drug:alanosine 1:1000; NSCLC; three days
Description: as §1, §2

A549 [8] = test: Drug combinations with L-alanosine, MTT assay; format: cell-based; conditions: combination with L-alanosine, NSCLC, three days
Description: as §1, §2

H-Meso-1 = test: Mesothelioma xenograft model (H-Meso-1) in SCID mice; format: in vivo; conditions: thirty-one days following treatment; docetaxel 10 mg/kg intraperitoneally daily Mon-Fri, SDX-102 50 mg/kg osmotic pump; start 100 mm^3; control 1272
A549 NSCLC xenografts = test: MTAP-negative A549 NSCLC xenografts in SCID mice; format: in vivo
[9] = Cell viability MTT assay (Example 3); format: cell-based; conditions: 72 h; A-594, NSCLC, MTAP Negative; 3 days
NCI-H2452 [10] = system: NCI-H2452
A-427 [11] = test: Cell viability MTT assay (Example 3); format: cell-based; conditions: Homo sapiens, 72 h; A-427, NSCLC, MTAP Positive; 3 days
A-594 = test: Intracellular ATP levels (Cell-Titer Glow); format: cell-based; conditions: 72 h; A-594, NSCLC, MTAP Negative; 3 day treatment
Description: (§3) MTAP status was determined using immunoblot analyses and correlated with the ability of an MTA analog to rescue ATP levels in cell lines treated with SDX-102. ATP levels were measured using Cell-Titer Glow™ (Promega) after a 3 day treatment with titrated concentrations of either SDX-102 or pemetrexed.

NCI-H2452 [12] = test: Intracellular ATP levels (Cell-Titer Glow); format: cell-based; conditions: Homo sapiens
Description: as §3

BxPC3 [13] = test: Intracellular ATP levels (Cell-Titer Glow); format: cell-based; conditions: Homo sapiens, BXPC-3, 72 h; BxPC3, Pancreatic, MTAP Negative; 3 day treatment
Description: as §3

HS-766T [14] = test: Cell viability MTT assay (Example 3); format: cell-based
NCI-H226 [15] = test: Cell viability MTT assay (Example 3); format: cell-based; conditions: Homo sapiens, 72 h; NCI-H226, Mesothelioma, MTAP Positive; 3 days
BxPC3 [16] = test: Cell viability MTT assay (Example 3); format: cell-based; conditions: Homo sapiens, BXPC-3, 72 h; BxPC3, Pancreatic, MTAP Negative; 3 days
NCI-H2452 [17] = test: Cell viability MTT assay (Example 3); format: cell-based; conditions: Homo sapiens, 72 h; NCI-H2452, Mesothelioma, MTAP Negative; 3 days
NCI-H226 [18] = test: Intracellular ATP levels (Cell-Titer Glow); format: cell-based
Description: as §3
(§4) ATP values measured using Cell-Titer Glow™ (Promega) after 3 days exposure to the MTA analog. Solid lines in FIG. 8 represent the effect of titrations of SDX-102 from 0.05 μM-20 μM (FIG. 8A) or pemetrexed from 0.01 μM-5 μM (FIG. 8B) on cellular ATP levels. The dotted lines represent the effect of a single concentration of SDX-102 (10 μM) or pemetrexed (2.5 μM) with a titration of an MTA analog from 0.1 μM-50 μM.

A-427 [19] = test: Intracellular ATP levels (Cell-Titer Glow); format: cell-based
Description: as §3, §4

HS-766T [20] = test: Intracellular ATP levels (Cell-Titer Glow); format: cell-based
Description: as §3, §4

[21] = ratio drug:alanosine 5:1, pancreatic
[22] = ratio drug:alanosine 1:4, pancreas
[23] = ratio drug:alanosine 1:100, pancreas

- EC90 Effect (PanC1; ratio drug:alanosine 1:1): synergism
- EC90 Effect (NCI-H2452 [3]; ratio drug:alanosine 1:1): synergism
- EC90 Effect (BX-PC3 [4]; [21]): moderate
Structure (SMILES): O=c1[nH]cc(F)c(=O)[nH]1 [5-FU, 5-fluorouracil]
- IC50 (PANC-1): 14000 ± 4000 nM
- IC50 (NCI-H2452 [1]): 5000 ± 2000 nM
- IC50 (NCI-H322M): 6000 ± 5000 nM
- IC50 (A549 [2]): 1000 ± 600 nM
- EC75 CI value (PanC1; ratio drug:alanosine 1:1): 0.6
- EC75 Effect (PanC1; ratio drug:alanosine 1:1): synergism
- EC75 CI value (NCI-H2452 [3]; ratio drug:alanosine 1:1): 0.5
- EC75 Effect (NCI-H2452 [3]; ratio drug:alanosine 1:1): synergism
- EC75 CI value (BX-PC3 [4]; [21]): 0.8
- EC75 Effect (BX-PC3 [4]; [21]): moderate
- IC50 (BX-PC3 [5]): 3000 ± 2000 nM
- IC50 (NCI-H292 [6]): 3000 ± 2000 nM

- EC90 Effect (BX-PC3 [4]; [22]): strong
Structure (SMILES): COc1cc2ncnc(Nc3ccc(F)c(Cl)c3)c2cc1OCCCN1CCOCC1 [Iressa ®, gefitinib]
- EC75 CI value (BX-PC3 [4]; [22]): 0.29
- EC75 Effect (BX-PC3 [4]; [22]): strong

- EC90 Effect (NCI-H2322M): synergism
- EC90 Effect (PanC1; ratio drug:alanosine 1:1000): synergism
- EC90 Effect (NCI-H292 [7]): additive
- EC90 Effect (A549 [8]; ratio drug:alanosine 1:100): moderate
- EC90 Effect (NCI-H2452 [3]; ratio drug:alanosine 1:1000): synergism
Structure (SMILES): CC(=O)O[C@@]12CO[C@@H]1C[C@H](O)[C@@]1(C)C(=O)[C@H](O)C3=C(C)[C@@H](OC(=O)[C@H](O)[C@@H](NC(=O)OC(C)(C)C)c4ccccc4)C[C@@](O)([C@@H](OC(=O)c4ccccc4)[C@H]21)C3(C)C [docetaxel]
- IC50 (PANC-1): 30000 ± 6000 nM
- IC50 (NCI-H2452 [1]): 3000 ± 2000 nM
- IC50 (NCI-H322M): 6000 ± 2000 nM
- IC50 (A549 [2]): 5000 ± 4000 nM
- EC75 CI value (NCI-H2322M): 0.9
- EC75 CI value (PanC1; ratio drug:alanosine 1:1000): 0.6
- EC75 Effect (PanC1; ratio drug:alanosine 1:1000): synergism
- EC75 CI value (NCI-H292 [7]): 1.1
- EC75 Effect (NCI-H292 [7]): additive
- EC75 CI value (A549 [8]; ratio drug:alanosine 1:100): 0.8
- EC75 Effect (A549 [8]; ratio drug:alanosine 1:100): moderate
- EC75 CI value (NCI-H2452 [3]; ratio drug:alanosine 1:1000): 0.8
- EC75 Effect (NCI-H2452 [3]; ratio drug:alanosine 1:1000): moderate
- mean tumor volume (H-Meso-1): 655 mm^3
- IC50 (BX-PC3 [5]): 1200 ± 800 nM
- IC50 (NCI-H292 [6]): 200 ± 50 nM

- EC90 Effect (NCI-H2452 [3]; ratio drug:alanosine 1:100): synergism
Structure (SMILES): Nc1ccn([C@@H]2O[C@H](CO)[C@@H](O)C2(F)F)c(=O)n1 [gemcitabine]
- EC75 CI value (NCI-H2452 [3]; ratio drug:alanosine 1:100): 0.6
- EC75 Effect (NCI-H2452 [3]; ratio drug:alanosine 1:100): synergism

Structure (SMILES): CC(=O)O[C@H]1C(=O)[C@@]2(C)[C@H]([C@H](OC(=O)c3ccccc3)[C@]3(O)C[C@H](OC(=O)[C@H](O)[C@@H](NC(=O)c4ccccc4)c4ccccc4)C(C)=C1C3(C)C)[C@]1(OC(C)=O)CO[C@@H]1C[C@@H]2O [paclitaxel]
- tumor growth inhibition (A549 NSCLC xenografts; 60 days monitoring, doses as administered): inhibited tumor growth
- time for the tumors to increase 10-fold in size (A549 NSCLC xenografts; L-alanosine 40 then 20 mg/kg/day, Taxol 16 mg/kg/day i.p., two cycles (day 0, day 41), control 32.2): 43.2 days
- percent mean change in tumor volume (A549 NSCLC xenografts; day 46): 1449±236%

Structure (SMILES): Nc1nc2[nH]cc(CCc3ccc(C(=O)N[C@@H](CCC(=O)O)C(=O)O)cc3)c2c(=O)[nH]1 [pemetrexed]
- IC50 [9]: 500 nM
- IC75 (NCI-H2452 [10]; NCI-H2452, incubation with 200 nM L-alanosine): 15 nM
- IC75 (NCI-H2452 [10]; NCI-H2452, pemetrexed alone): 200 nM
- IC50 (A-427 [11]): 3000 nM
- IC50 (A-594): > 20000 nM
- IC50 (NCI-H2452 [12]; 72 h, NCI-H2452, Mesothelioma, MTAP Negative, 3 day treatment, read-out: ATP IC50): 100 nM
- IC50 (NCI-H2452 [12]; NCI-H2452, 72 hours incubation, read-out: concentration causing 50% reduction of intracellular ATP): 80 nM
- IC50 (BxPC3 [13]): 5000 nM
- IC50 (HS-766T [14]; Hs766T, 72 h, Pancreatic, MTAP Positive, 3 days): > 20000 nM
- rescue by MTAP substrate from loss of viability (HS-766T [14]; MTT assay): fully rescue
- EC75 CI value (A549 [8]; ratio drug:alanosine 1:10): 0.9
- EC75 Effect (A549 [8]; ratio drug:alanosine 1:10): slight
- EC90 Effect (A549 [8]; ratio drug:alanosine 1:10): Slight
- EC75 CI value (NCI-H2452 [3]; ratio drug:alanosine 1:1): 0.3
- EC75 Effect (NCI-H2452 [3]; ratio drug:alanosine 1:1): strong
- EC90 Effect (NCI-H2452 [3]; ratio drug:alanosine 1:1): strong
- IC50 (NCI-H226 [15]): 1000 nM
- IC50 (BxPC3 [16]): 50 nM
- IC50 (NCI-H2452 [17]): 50 nM
- IC50 (NCI-H226 [18]; Homo sapiens, 72 h, NCI-H226, Mesothelioma, MTAP Positive, 3 day treatment): 1000 nM
- ATP levels restored by addition of an MTAP substrate, of level in control cells (NCI-H226 [18]; NCI-H226 (MTAP-positive) treated with pemetrexed): more than 85%
- ATP levels restored by addition of an MTAP substrate, of level in control cells (A-427 [19]; A-427 (MTAP-positive) treated with pemetrexed): more than 85%
- IC50 (A-427 [19]; Homo sapiens, 72 h, A-427, NSCLC, MTAP Positive, 3 day treatment): 5000 nM
- ATP levels restored by addition of an MTAP substrate, of level in control cells (HS-766T [20]; HS-766T (MTAP-positive) treated with pemetrexed): more than 85%
- IC50 (HS-766T [20]; Hs766T, 72 h, HS-766T, Pancreatic, MTAP Positive, 3 day treatment): 800 nM

- EC90 Effect (BX-PC3 [4]; [23]): synergism
Structure (SMILES): CCC1=C[C@@H]2CN(C1)Cc1c([nH]c3ccccc13)[C@@](C(=O)OC)(c1cc3c(cc1OC)N(C)[C@H]1[C@@](O)(C(=O)OC)[C@H](OC(C)=O)[C@]4(CC)C=CCN5CC[C@]31[C@@H]54)C2 [vinorelbine]
- EC75 CI value (BX-PC3 [4]; [23]): 0.6
- EC75 Effect (BX-PC3 [4]; [23]): synergism

Reference: patent US20060041013A1, “Alanosine formulations and methods of use” (priority 2004, published 2006)
